Measurements: patent US5605700A (priority 1992, dated 1997)
Entries after “also recorded” stand apart in the source; their conditions may differ.

Columns and labels:
[1] = Tissue distribution of toremifene and metabolites after 5 days IP vs. topical toremifene (HPLC), mice with MDA A-1 tumors; details: for concentration at 2 h: mouse
Procedure: Sixteen female athymic nude mice were injected with a 20-gauge needle subcutaneously with 5×10^6 MDA A-1 cells in the left scapular area. The tumors were allowed to grow for three weeks prior to treatment.
Each of the three mice were injected IP using an 18 gauge needle with 50 μl, delivering 1 mg/day for five days. […] All mice were sacrificed on the fifth day of treatment two hours after the final dose. Blood specimens were collected by capillary pipette after disruption of axillary vessels and placed into heparinized centrifuge tubes. The brains, livers, and uterus were removed surgically and placed in separate tubes.
All blood samples were centrifuged at 1,000 g. The plasma was collected, measured for volume, and placed in clean extraction tubes. All remaining tissue samples were weighed, placed in extraction tubes, and spiked with an internal standard, nafoxidine. The tissues were thoroughly homogenized before the addition of 6 ml extraction fluid. Samples were collected and dried as described below. Before injection onto the HPLC column, each sample was reconstituted with 200 μl methanol. All samples were placed in a quartz cuvette for UV activation. The brain samples required filtration with disposable syringe filters.

[2] = system: MCF-7 cells; test: Prevention of breast cancer (MCF-7) tumor growth by topical administration in the mouse; format: in vivo; details: topical 500 μg, 15 days
Procedure: In this study 12 mice were transplanted with MCF-7 cells and were allowed to grow until a small tumor was detected in all mice (<1 mm^3). At that time mice were divided into three groups of four mice each. […] All mice received the same amount of diluent/day (20 μl ). The study was assessed following 15 days of treatment.

[3] = system: MDR-positive cells; details: cited from earlier work; for multidrug resistance reversal / chemosensitizing activity: in vitro
[4] = system: estrogen receptors (ER's); details: cited from earlier work
[5] = cited from earlier work; for concentration: following large oral doses, read-out: plasma concentration
[6] = system: MDR MDA A-1 tumors; test: Doxorubicin cytotoxicity enhancement in MDR tumors; clonogenic assay of tumors excised from treated mice; format: in vivo, mouse; details: for percent inhibition (clonogenic assay): all three tumors, doxorubicin 1 μg/ml 1 hour, 14 days
Procedure: Drug was applied dropwise to the skin surface directly and around the tumor. Each drop was allowed to evaporate completely. This treatment was administered once a day at the same time for a total of five days. […] Tumors were collected sterilely and processed for clonogenic assay.
The remaining portion was cloned following a 1 hour exposure to doxorubicin 1 μg/ml.

[7] = system: estrogen receptor (ER) positive metastatic breast cancer; details: cited from earlier work
[8] = Tissue distribution of toremifene after single dose (500 μg) IP vs. topical; format: in vivo; details: mouse, 0.5 mg
Procedure: Single dose toremifene was administered by IP as described above, or topically with DMSO/ETOH/methylcellulose/water as the diluents. […] Tissue samples were collected as above.
All blood samples were centrifuged at 1,000 g. […] Samples were collected and dried as described below. […] The brain samples required filtration with disposable syringe filters.
DMSO and methylcellulose were used as the diluents. […] This was trend noted in both serum and uterus.

[9] = system: spontaneous non-Hodgkin's lymphoma; test: Treatment of spontaneous non-Hodgkin's lymphoma in a baboon; format: in vivo
Procedure: Enlarged lymph nodes with diameters of 1-2 cm were evident in the both groins. Toremifene was dissolved in a. mixture of dimethylsulfoxide, ethanol and methylcellulose. […] On day 25 following start of treatment, topical therapy of right groin was re-instituted while continuing the oral treatment. […] The response to therapy was determined by measuring the sizes of the tumors on two perpendicular dimensions.

[10] = Plasma and tissue concentration of toremifene after topical administration in Monodelphis domestica; format: in vivo
Procedure: The dose was 0.5 mg/d in 3 and 1 mg/d in 3 animals.

[11] = system: TD 36; test: Cytostatic effect in melanoma cell line TD 36; format: cell-based; details: human cell line TD 36; read-out: IC-50 (50% growth inhibitory concentration)
[12] = system: TD 30 A; test: Cytostatic effect in melanoma cell line TD 30 A; format: cell-based; details: human cell line TD 30 A; read-out: IC-50 (50% growth inhibitory concentration)
[13] = system: SD-MEL-31; test: Cytostatic effect in metastatic melanoma cell line SD-MEL-31 (text: SK-MEL-31); format: cell-based; details: human cell line SD-MEL-31; read-out: IC-50 (50% growth inhibitory concentration)
Text: (§1) The metastatic melanoma cell line, SK-MEL-31, was obtained from the American Type Culture Collection (Rockville, Md.). Two additional human cell lines were derived from portions of surgigally-excised large diameter, superficial spreading melanomas. TD 1.4 was developed from a benign melanoma, whereas TD 7.2 and TD 8 were derived from melanocytic hyperplasias.

[14] = system: TD 8; test: Cytostatic effect in experimental cell line TD 8; format: cell-based; details: Monodelphis domestica, read-out: IC-50 (50% growth inhibitory concentration)
Text: as §1

[15] = system: TD 1.4; test: Cytostatic effect in experimental cell line TD 1.4; format: cell-based; details: Monodelphis domestica, read-out: IC-50 (50% growth inhibitory concentration)
Text: as §1

[16] = system: TD 7.2; test: Cytostatic effect in experimental cell line TD 7.2; format: cell-based; details: Monodelphis domestica, read-out: IC-50 (50% growth inhibitory concentration)
Text: as §1

[17] = system: six cell lines of melanocyte origin; test: Cytostatic effect in all six cell lines of melanocyte origin; format: cell-based, human and Monodelphis domestica
Text: as §1

[18] = brain, topical or ocular, 2.5 mg/day
[19] = liver, topical or ocular, 2.5 mg
[20] = serum, topical or ocular, 2.5 mg
[21] = tumor, topical or ocular, 2.5 mg
[22] = uterus, topical or ocular, 2.5 mg
[23] = oral 1 g on days 15, 17, 19 and 23
[24] = right inguinal lymphoma, topical re-instituted while continuing oral

Compound: CN(C)CCOc1ccc(/C(=C(/CCCl)c2ccccc2)c2ccc(O)cc2)cc1 [4-hydroxytoremifene, 4-chloro-1-(4-hydroxyphenyl)-2-phenyl-1-[4-[2-(N, N-dimethylamino)ethoyoxy]phenyl]-1-butene]
- Topical/IP brain concentration ratio ([1]; brain, topical 2.5 mg/day vs IP 1 mg/day, 5 days, listed as Trans 4-hydroxytoremifene): 1.00
- Topical/IP brain concentration ratio ([1]; brain, topical 2.5 mg/day vs IP 1 mg/day, 5 days, listed as trans 4-hydroxytoremifene): identical
- Topical/IP liver concentration ratio ([1]; liver, topical 2.5 mg/day vs IP 1 mg/day, 5 days): 1.63
- concentration at 2 h ([1]; brain, ip, 1 mg/day): 350 ng/g
- concentration at 2 h [1, 18]: 350 ng/g
- concentration at 2 h ([1]; liver, ip, 1 mg): 600 ng/g
- concentration at 2 h [1, 19]: 980 ng/g
- concentration at 2 h ([1]; serum, ip, 1 mg): 160 ng/mL
- concentration at 2 h [1, 20]: 100 ng/mL
- concentration at 2 h ([1]; tumor, ip, 1 mg): 880 ng/g
- concentration at 2 h [1, 21]: 2330 ng/g
- concentration at 2 h ([1]; uterus, ip, 1 mg): 830 ng/g
- concentration at 2 h [1, 22]: 700 ng/g
- Topical/IP serum concentration ratio ([1]; serum, topical 2.5 mg/day vs IP 1 mg/day, 5 days, listed as Trans 4-hydroxytoremifene): 0.63
- Topical/IP serum concentration ratio ([1]; serum, topical 2.5 mg/day vs IP 1 mg/day, 5 days, listed as trans 4-hydroxytoremifene): lower
- Topical/IP tumor concentration ratio ([1]; tumor, topical 2.5 mg/day vs IP 1 mg/day, 5 days, listed as Trans 4-hydroxytoremifene): 2.65
- Topical/IP tumor concentration ratio ([1]; tumor, topical 2.5 mg/day vs IP 1 mg/day, 5 days, listed as trans 4-hydroxytoremifene): greater concentrations
- Topical/IP uterus concentration ratio ([1]; uterus, topical 2.5 mg/day vs IP 1 mg/day, 5 days): 0.84
- effect on tumor growth [2]: prevented tumor growth
- mice that developed a tumor ([2]; four mice per group, all four control mice had tumors >6×8 mms): only one mouse
- multidrug resistance reversal / chemosensitizing activity [3]: have chemosensitizing activity in MDR-positive cells
- antiestrogenic potency among metabolites [4]: most potent antiestrogenic metabolite

Compound: CNCCOc1ccc(C(=C(CCCl)c2ccccc2)c2ccccc2)cc1 [N-demethyltoremifene, 4-chloro-1,2-diphenyl-[4-[2-(N-methylamino)ethoxy-]phenyl]-1-butene]
- concentration at 2 h ([1]; brain, ip, 1 mg/day): 490 ng/g
- concentration at 2 h [1, 18]: 290 ng/g
- concentration at 2 h ([1]; liver, ip, 1 mg): 940 ng/g
- concentration at 2 h [1, 19]: 920 ng/g
- concentration at 2 h ([1]; serum, ip, 1 mg): 180 ng/mL
- concentration at 2 h [1, 20]: 80 ng/mL
- concentration at 2 h ([1]; tumor, ip, 1 mg): 1270 ng/g
- concentration at 2 h [1, 21]: 8430 ng/g
- concentration at 2 h ([1]; uterus, ip, 1 mg): 1180 ng/g
- concentration at 2 h [1, 22]: 560 ng/g
- multidrug resistance reversal / chemosensitizing activity [3]: have chemosensitizing activity in MDR-positive cells
- concentration [5]: ~10 µM

Compound: COc1cccc2c1C(=O)c1c(O)c3c(c(O)c1C2=O)C[C@@](O)(C(=O)CO)C[C@@H]3O[C@H]1C[C@H](N)[C@H](O)[C@H](C)O1 [doxorubicin]
- sensitivity of tumor to doxorubicin without toremifene ([6]; mouse not treated with toremifene (FIG. 2)): resistant

Compound: CC/C(=C(\c1ccccc1)c1ccc(OCCN(C)C)cc1)c1ccccc1 [tamoxifen]
- fraction of patients with temporary remission ([7]; ER positive metastatic breast cancer): About two-thirds
- endometrial toxicity ([7]; adjuvant therapy, women): increased risk of developing endometrial neoplasms; also recorded: endometrial dysplasia, bleeding, polyp formation and tumors
- estrogen receptor antagonism ([4]; inhibition of estrogen-induced growth): competitive antagonism of tumor estrogen receptors

Compound: CN(C)CCOc1ccc(/C(=C(/CCCl)c2ccccc2)c2ccccc2)cc1 [toremifene]
- concentration at 2 h ([8]; serum, ip, Serum toremifene concentration): 90 ng/mL
- concentration at 2 h ([8]; serum, topical or ocular, Serum toremifene concentration, topical in DMSO): 30 ng/mL
- concentration at 2 h ([8]; serum, topical or ocular, Serum toremifene concentration, topical in methylcellulose (MC)): 20 ng/mL
- concentration at 2 h ([8]; tumor, ip, Tumor toremifene concentration): 2570 ng/g
- concentration at 2 h ([8]; tumor, topical or ocular, Tumor toremifene concentration, topical in DMSO): 4650 ng/g
- concentration at 2 h ([8]; tumor, topical or ocular, Tumor toremifene concentration, topical in methylcellulose (MC)): 1800 ng/g
- concentration at 2 h ([8]; uterus, ip, Uterus toremifene concentration): 23600 ng/g
- concentration at 2 h ([8]; uterus, topical or ocular, Uterus toremifene concentration, topical in DMSO): 920 ng/g
- concentration at 2 h ([8]; uterus, topical or ocular, Uterus toremifene concentration, topical in methylcellulose (MC)): 1100 ng/g
- effect on tumor growth [2]: prevented tumor growth
- percent inhibition (clonogenic assay) ([6]; intraperitoneal toremifene): < 30%
- percent inhibition (clonogenic assay) ([6]; topical toremifene): > 30%
- sensitization of tumors to doxorubicin ([6]; topical toremifene, cloning studies (FIG. 2)): appears to sensitize these MDR MDA A-1 tumors to doxorubicin
- left inguinal lymphoma during oral therapy [9, 23]: stabilized
- right inguinal lymphoma during oral therapy [9, 23]: begun to regrow
- response of lymphoma to topical toremifene ([9]; right inguinal lymphoma, 1.4 g topical over 8 days): clear response
- tumor area after reinstituted topical therapy [9, 24]: 24 mm^2
- tumor area before reinstituted topical therapy [9, 24]: 476 mm^2
- in vivo antitumor response ([9]; topical, regional T-cell lymphoma): can produce an in vivo antitumor response
- mean concentration of toremifene in brain ([10]; topical 0.5 mg/day for 5 days): 0.82 ± 0.99 nmol/g
- mean concentration of toremifene in skin ([10]; topical 0.5 mg/day for 5 days): 1296.40 ± 1003.93 nmol/g
- mean concentration of toremifene in brain ([10]; topical 1 mg/day for 5 days): 0.82 ± 0.62 nmol/g
- mean concentration of toremifene in skin ([10]; topical 1 mg/day for 5 days): 1237.35 ± 768.90 nmol/g
- Toremifene concentration in skin as compared to other tissues ([10]; topical 0.5 and 1 mg/day for 5 days): more than 500 fold
- IC50 [11]: 5.8 µM
- IC50 [12]: 7.7 µM
- IC50 [13]: 8.1 µM
- IC50 [14]: 7.7 µM
- IC50 [15]: 9.3 µM
- IC50 [16]: 9.6 µM
- IC50 ([17]; Melanocyte, all six cell lines, read-out: range of IC-50s): 5.8 to 9.6 µM
- cytostatic effect ([17]; human and experimental melanomatous cell lines in vitro): clear cytostatic effect
- concentration that reverses resistance in vitro ([3]; achievable in vivo following oral therapy): 5 µM
- multidrug resistance reversal / chemosensitizing activity [3]: have chemosensitizing activity in MDR-positive cells
- concentration [5]: ~10 µM
- systemic toxicity ([5]; high-dose toremifene (400 mg/day)): generally confined to vertigo, nausea and hot flashes

Compound: COc1ccc(CCN(C)CCCC(C#N)(c2ccc(OC)c(OC)c2)C(C)C)cc1OC (stereo not drawn) [verapamil]
- multidrug resistance reversal / chemosensitizing activity [3]: shown to reverse multidrug resistance in vitro
